Assay results taken from patent US9782400B2, “Oncogenic ROS1 and ALK kinase inhibitor” (Macau University of Science and Technology, priority 2015, dated 2017).

What was measured:
[1] = system: BEAS-2B cells; test: MTT assay, normal lung epithelial cells (Example 1A); assay type: cell-based; settings: Homo sapiens, 72 h treatment
Experimental: (§1) To show the highly cytotoxic and selective properties of the present compound of Formula (Ic), HCC78 NSCLC cells and normal lung epithelial cells (BEAS-2B) were treated with the compound of Formula (Ic) and respective effects were observed. HCC78 NSCLC cells are non-small cell lung cancer cells with a ROS1 gene fusion. HCC78 cells were obtained from the American Type Culture Collection (ATCC) and cultured in environment of 5% CO2 at 37° C. in RPMI-1640 medium supplemented with 10% fetal bovine serum (FBS), 100 units/mL penicillin, and 100 μg/mL streptomycin. The compound of Formula (Ic) was dissolved in DMSO. Using a MTT assay, 3000 HCC78 or BEAS-2B cells were seeded on 96-well plates, cultured overnight for cell adhesion, and treated with DMSO or various concentrations of the compound of Formula (Ic) for 72 h. Three independent tests were performed. 10 μL of MTT (5 mg/mL; Sigma) were added to each well, and incubation continued for another 4 h. Then the dark blue crystals were dissolved in 100 μL of the resolved solution (10% SDS and 0.1 mM HCL). The absorbance was measured at 570 nm by a microplate reader (Tecan, Morrisville, N.C., USA).
(§2) The cell viability was calculated relative to untreated controls, with results based on at least three independent experiments. […] The compound of Formula (Ic) exerts a 3.75-fold cytotoxicity towards cancer cells than normal healthy cells.

[2] = system: ALK fusion kinase; test: Western blot of ALK phosphorylation and downstream signaling in H2228 cells; assay type: cell-based; settings: H2228 cells, 1.25, 2.5, 5 μM
Experimental: Equal amounts of the protein samples (20-40 μg per lane) were separated on a 10% SDS-PAGE gel, then proteins were transferred onto Nitrocellulose (NC) membrane at 300 mA for 2.5 hours at 4° C., the membranes was probed with primary antibodies overnight at 4° C. which was then exposed to 5% non-fat dry milk in TBST for 1 h at room temperature with constant agitation and, then, rabbit or mouse fluorescent antibodies (1:1000) were added to the membrane at room temperature for 1 h. Visualization was performed using a LI-COR Odessy scanner (Belfast, Me., USA). All primary antibodies were diluted 1:1000, while their recommended secondary antibodies were diluted 1:10000.

[3] = system: BEAS-2B cells; test: MTT assay, human bronchial epithelial cells (Example 2A); assay type: cell-based; settings: 72 h treatment
Experimental: (§3) H2228 (which express EML4-ALK fusion kinases, namely variant 3) and BEAS-2B cells were obtained from the American Type Culture Collection and cultured in environment of 5% CO2 at 37° C. in RPMI-1640 medium supplemented with 10% fetal bovine serum (FBS), 100 units/mL penicillin, and 100 μg/mL streptomycin.
(§4) The cytotoxicity effect of the compound of Formula (Ic) on H2228 NSCLC cells (harboring ALK fusion) and human bronchial epithelial (BEAS-2B) have been analyzed. H2228 cells were cultured in 96-well plates at a density of 3×10^3 cells/well, and were cultured overnight for cell adhesion. Then the cells were treated with DMSO or various concentrations of the compound of Formula (Ic) for 72 h. To each well 10 μL MTT (5 mg/mL) (Sigma) was added and the cells were incubated for another 4 h at 37° C., followed by adding 100 μL acidic isopropanol (10% SDS, and 0.01 mol/L HCl). Finally, the optical density (OD) of each well was measured at 570 nm by the Microplate Reader (Epoch, Winooski, USA). The cell viability was calculated relative to untreated controls, with results based on at least three independent experiments.

[4] = system: H2228 NSCLC cells; test: MTT assay, cell viability of H2228 cells; assay type: cell-based; settings: Homo sapiens, NCI-H2228, 72 h treatment
Experimental: as §3, §4

[5] = system: ROS1 fusion kinase; test: Western blot of ROS1 phosphorylation and downstream signaling in HCC78 cells; assay type: cell-based; settings: HCC78 cells, 1.25, 2.5, 5 μM, 72 h
Experimental: The cells were planted on 6-well plate, allowed to attach for 24 h, and treated with the various concentrations of the compound of Formula (Ic) for 72 h. Cells were washed twice with cold PBS then lysed in RIPA lysis buffer containing protease and phosphatase inhibitors. Protein concentration of the cell lysates was measured using the Bio-Rad protein Assay kit (Bio-Rad, 7 Philadelphia, Pa., USA). After equalizing the protein concentrations of the samples, 5× laemmli buffer was added and the samples were boiled at 100° C. for 5 min. Equal amounts of protein samples (30 μg) were subjected to SDS-PAGE of a 10% gel. The separated proteins were transferred to a nitrocellulose (NC) membrane, which was then exposed to 5% non-fat dried milk in TBS containing 0.1% Tween (0.1% TBST) for 1 h at room temperature, followed by overnight incubation at 4° C. with primary antibodies to GAPDH, phospho-AKT, AKT, phospho-ROS1, ROS1, phospho-ERK, ERK, phospho-STAT3, STAT3. After washing three times by TBST (5 mins/time), the membranes were incubated for 1 h at room temperature with the secondary fluorescent antibodies (1:10000 dilutions) to rabbit or mouse. The signal intensity of the membranes was detected by an LI-COR Odessy scanner (Belfast, Me., USA).

[6] = system: HCC78 NSCLC cells; test: MTT assay, cell viability of HCC78 cells; assay type: cell-based
Experimental: as §1, §2

[7] = system: HCC78 cells; test: Apoptosis assay (Annexin-V FITC/PI, fluorescence images and flow cytometry) in HCC78 cells; assay type: cell-based; settings: 72 h
Experimental: HCC78 cells (1.0×10^5 cells/well) were allowed to attach to a 6-well plate for 24 h, and the cells were treated with the various concentrations of the compound of Formula (Ic) for additional 72 h. At the end of incubation, the cells were harvested by trypsinization and washed twice with ice-cold PBS. After centrifugation and removal of the supernatants, cell pellets were resuspended in 100 μL 1× Annexin-binding buffer, 2 μL Annexin-V FITC and 2 μL PI (100 μg/ml) were added and incubated in the dark at room temperature for 15 min before further addition of 400 μL of 1× Annexin-binding buffer. The stained cells were analyzed quantitatively using a flow cytometer (BD Biosciences, San Jose, Calif., USA). […] Such cell morphology indicates apoptosis.

[8] = system: H2228 cells; test: Colony formation assay in H2228 cells; assay type: cell-based; settings: 14 days
Experimental: H2228 cells were seeded to six-well plate (1000/well). Then cells were exposed to various doses of the compound of Formula (Ic), namely 1.25, 2.5 and 5 μM. After 14 days, colonies were fixed with 4% paraformaldehyde for 15 min and stained with crystal violet for 10-15 min. Finally, the staining solution was slowly washed off with water and the cells were air dried. Clones with more than 50 cells were counted under a microscope.

[9] = system: H2228 cells; test: Apoptosis assay (Annexin-V FITC/PI flow cytometry) in H2228 cells; assay type: cell-based; settings: 48 h
Experimental: H2228 cells (1.0×10^5 cells/well) were allowed to attach in a 6-well plate for 24 h. The cells were treated with various concentrations of the compound of Formula (Ic), namely 1.25, 2.5 and 5 μM, for 48 h. Subsequently, cells were trypsinized, washed with PBS twice, then the cells were resuspended in a total volume of 100 μL binding buffer with 2 μL Annexin-V FITC and 5 μL propidine iodide (PI). Finally, the cells were gently mixed and incubated in the dark at room temperature for 15 min, before further addition of 400 μL of 1× Annexin-binding buffer, the number of apoptotic cells was quantified using a Flow Cytometer (BD Biosciences, San Jose, Calif., USA) within 1 h. Data were analyzed by Flow Jo software.

[10] = system: ROS1-positive NSCLC; settings: NSCLC patients harboring ROS1 rearrangements; cited from earlier work

IC50 [4]	IC50 ([6]; Homo sapiens, HCC78 cells, MTT, 72 h treatment)	SMILES	IC50 [1]	ALK phosphorylation and downstream PI3K/AKT, MEK/ERK and JAK/STAT3 signaling pathways [2]	IC50 [3]	ROS1 phosphorylation and downstream signaling involving Erk1/2, STAT3 and AKT [5]	fold cytotoxicity towards cancer cells than normal healthy cells ([6]; HCC78 versus BEAS-2B, 72 h)	cell morphology indicating apoptosis (fluorescence images) ([7]; HCC78 cells, 2.5 μM)	induction of apoptosis (flow cytometry) ([7]; HCC78 cells, 1.25, 2.5, 5 μM)	formation of H2228 cell colonies ([8]; 5 μM)	formation of H2228 cell colonies ([8]; 1.25, 2.5, 5 μM)	induction of apoptosis (flow cytometry) ([9]; H2228 cells, 1.25, 2.5, 5 μM)	level of cell apoptosis compared with control group ([9]; H2228 cells, concentration of at least 5 μM)	median progression-free survival [10]	objective response rate [10]
2.71 ± 0.92 µM	1.62 µM	COc1ccc(CNC(=O)Cn2nc(-c3ccccc3)c3cnc4ccccc4c32)cc1 [compound of Formula (Ic)]	6.08 µM	significant suppression	6.51 ± 1.08 µM	dose-dependent decrease	3.75 fold	detach from the surface and are small	induction of apoptosis on HCC78 cells in a concentration dependent manner	no visible colonies	inhibited the formation of H2228 cell colonies in a dose-dependent manner	induction of apoptosis of H2228 cells in a concentration-dependent manner	significant levels of cell apoptosis	–	–
–	–	C[C@@H](Oc1cc(-c2cnn(C3CCNCC3)c2)cnc1N)c1c(Cl)ccc(F)c1Cl [crizotinib]	–	–	–	–	–	–	–	–	–	–	–	19.2 months	72%
